Test system: 299254-011-R-J1-PDC complex spheroid viability
Assay: Anticancer human tumor 299254-011-R-J1-PDC patient-derived melanoma cell line growth inhibition [POLQ]
Settings: for IC50: curve of first compound; for viability, T/C: stronger effect = lower value
Outline: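 PDC + HUVEC + MSC complex spheroids; POLQ inhibitors ± partner drugs; top conc. at/near clinical Cmax, else 10 microM (SN-38 1 microM), half-log dilutions; 37 degrees C, 5% CO2.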

[1] = second compound 0.0316 µM, first compound 0.0316 µM
[2] = second compound 0.0316 µM, first compound 0.1 µM
[3] = second compound 0.0316 µM, first compound 0.316 µM
[4] = second compound 0.0316 µM, first compound 1 µM
[5] = second compound 0.0316 µM, first compound 3.16 µM
[6] = second compound 0.0316 µM, first compound 10 µM
[7] = second compound 0.1 µM, first compound 0.0316 µM
[8] = second compound 0.1 µM, first compound 0.1 µM
[9] = second compound 0.1 µM, first compound 0.316 µM
[10] = second compound 0.1 µM, first compound 1 µM
[11] = second compound 0.1 µM, first compound 3.16 µM
[12] = second compound 0.1 µM, first compound 10 µM
[13] = second compound 0.316 µM, first compound 0.0316 µM
[14] = second compound 0.316 µM, first compound 0.1 µM
[15] = second compound 0.316 µM, first compound 0.316 µM
[16] = second compound 0.316 µM, first compound 1 µM
[17] = second compound 0.316 µM, first compound 3.16 µM
[18] = second compound 0.316 µM, first compound 10 µM
[19] = second compound 1 µM, first compound 0.0316 µM
[20] = second compound 1 µM, first compound 0.1 µM
[21] = second compound 1 µM, first compound 0.316 µM
[22] = second compound 1 µM, first compound 1 µM
[23] = second compound 1 µM, first compound 3.16 µM
[24] = second compound 1 µM, first compound 10 µM
[25] = second compound 3.16 µM, first compound 0.0316 µM
[26] = second compound 3.16 µM, first compound 0.1 µM
[27] = second compound 3.16 µM, first compound 0.316 µM
[28] = second compound 3.16 µM, first compound 1 µM
[29] = second compound 3.16 µM, first compound 3.16 µM
[30] = second compound 3.16 µM, first compound 10 µM
[31] = second compound 10 µM, first compound 0.0316 µM
[32] = second compound 10 µM, first compound 0.1 µM
[33] = second compound 10 µM, first compound 0.316 µM
[34] = second compound 10 µM, first compound 1 µM
[35] = second compound 10 µM, first compound 3.16 µM
[36] = second compound 10 µM, first compound 10 µM
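Further: spheroids exposed to drugs for one week before measurement.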
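Wherever viability, T/C is given: percent viability relative to DMSO vehicle control taken as 100%.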

COc1ccc([C@@H](O)c2cc(-c3ncnc4cc(N5CCOCC5)ccc34)c(F)cc2Cl)nn1 + Nc1ccc(C#CCN(C(=O)Cc2ncc(C(F)(F)F)cc2C(F)(F)F)c2ccc(F)cc2)nn1 gave an IC50 (second compound 0.0316 µM) of over 10 µM, an IC50 (second compound 0.1 µM) of 9.37 µM and an IC50 (second compound 0.316 µM) of over 10 µM. For the same compound, the IC50 (second compound 1 µM) was 9 µM, the IC50 (second compound 3.16 µM) was over 10 µM and the IC50 (second compound 10 µM) was over 10 µM. It also gave a viability, T/C [1] of 116%, a viability, T/C [2] of 112% and a viability, T/C [3] of 98%. It also gave a viability, T/C [4] of 105%, a viability, T/C [5] of 91.5% and a viability, T/C [6] of 50%. The viability, T/C [7] was 94.3%, the viability, T/C [8] was 89.4% and the viability, T/C [9] was 100%. The viability, T/C [10] was 105%, the viability, T/C [11] was 105% and the viability, T/C [12] was 47%. The viability, T/C [13] was 106%, the viability, T/C [14] was 108% and the viability, T/C [15] was 105%. It also gave a viability, T/C [16] of 104%, a viability, T/C [17] of 88.8% and a viability, T/C [18] of 54.3%. It also gave a viability, T/C [19] of 102%, a viability, T/C [20] of 98.5% and a viability, T/C [21] of 105%. For the same compound, the viability, T/C [22] was 106%, the viability, T/C [23] was 106% and the viability, T/C [24] was 44.4%. The viability, T/C [25] was 103%, the viability, T/C [26] was 101% and the viability, T/C [27] was 96.7%. The viability, T/C [28] was 96%, the viability, T/C [29] was 81.9% and the viability, T/C [30] was 54.4%. For the same compound, the viability, T/C [31] was 99.1%, the viability, T/C [32] was 93.5% and the viability, T/C [33] was 91.1%. The viability, T/C [34] was 86.4%, the viability, T/C [35] was 80.4% and the viability, T/C [36] was 54%.

COc1ccc([C@@H](O)c2cc(-c3ncnc4cc(N5CCOCC5)ccc34)c(F)cc2Cl)nn1 + Cc1cccc(N(C)C(=O)C2C(O)CCN2c2nc(C)cc(C(F)(F)F)c2C#N)c1 was tested, and the IC50 (second compound 0.0316 µM) was over 10 µM, the IC50 (second compound 0.1 µM) was over 10 µM and the IC50 (second compound 0.316 µM) was 8.36 µM. For the same compound, the IC50 (second compound 1 µM) was 8.8 µM, the IC50 (second compound 3.16 µM) was 6.8 µM and the IC50 (second compound 10 µM) was 5.75 µM. It also gave a viability, T/C [1] of 105%, a viability, T/C [2] of 102% and a viability, T/C [3] of 96.7%. It also gave a viability, T/C [4] of 99%, a viability, T/C [5] of 87.9% and a viability, T/C [6] of 49.6%. It also gave a viability, T/C [7] of 90.1%, a viability, T/C [8] of 89.2% and a viability, T/C [9] of 112%. For the same compound, the viability, T/C [10] was 92.5%, the viability, T/C [11] was 95.9% and the viability, T/C [12] was 53.4%. For the same compound, the viability, T/C [13] was 101%, the viability, T/C [14] was 108% and the viability, T/C [15] was 97.9%. It also gave a viability, T/C [16] of 86.2%, a viability, T/C [17] of 82.1% and a viability, T/C [18] of 43.6%. The viability, T/C [19] was 108%, the viability, T/C [20] was 97.6% and the viability, T/C [21] was 104%. It also gave a viability, T/C [22] of 111%, a viability, T/C [23] of 82.6% and a viability, T/C [24] of 46%. It also gave a viability, T/C [25] of 102%, a viability, T/C [26] of 102% and a viability, T/C [27] of 100%. For the same compound, the viability, T/C [28] was 90.2%, the viability, T/C [29] was 77.8% and the viability, T/C [30] was 36.5%. For the same compound, the viability, T/C [31] was 94.6%, the viability, T/C [32] was 82.8% and the viability, T/C [33] was 109%. It also gave a viability, T/C [34] of 88.5%, a viability, T/C [35] of 66% and a viability, T/C [36] of 35.3%.

Source: PubChem BioAssay AID1963849 (Molecular Pharmacology Branch, DTP, NCI, 2024)
